Results taken from US12590069B2, “Crystalline salts of a plasma kallikrein inhibitor” (BioCryst Pharmaceuticals, Inc., priority 2018, dated 2026).
Counter-ions that a name gives are not always drawn.

Experiments:
[1] = Phase I multiple ascending oral dose pharmacokinetics in healthy subjects (plasma, LC-MS/MS); format: in vivo, human; conditions: for Ctau (trough plasma concentration at end of dosing interval) / Cmax / AUC / Tmax: healthy subjects; for Ctau (trough plasma concentration at end of dosing interval) / Cmax / AUC: geometric mean; for Cmax / AUC / Tmax: human, plasma, po; for Tmax: median
Protocol: As part of a Phase I, double-blind, placebo-controlled dose-ranging study, the pharmacokinetics of multiple ascending oral doses of Compound I·2 (HCl) were evaluated in healthy subjects. Four ascending dose cohorts were enrolled for dosing in a sequential manner. At the start, twelve subjects were randomized into each cohort for administration of a 7-day or 14-day course of study drug (n=10/cohort received Compound I·2 (HCl) and n=2/cohort received matching placebo) according to the following dose regimens: 125 mg Compound I·2 (HCl) or placebo once per day (QD) for 7 days in Cohort 1; 250 mg Compound I·2 (HCl) or placebo QD for 7 days in Cohort 2; 500 mg Compound I·2 (HCl) or placebo QD for 7 days in Cohort 3; […] Overall, 37 out of the 40 subjects receiving multiple doses of Compound I·2 (HCl) completed their respective dose regimens and were available for assessment of PK parameters at either Day 7 or Day 14.
Serial blood samples were drawn for pharmacokinetic analysis before dose administration on Day 7 or Day 14, and over the following 24 hours. The plasma samples for determination of Compound I·2 (HCl) concentrations were analyzed with the use of a validated LC-MS/MS (Liquid Chromatography with tandem mass spectrometry) bioanalytical assay.
Plasma Compound I·2 (HCl) concentration versus time profiles on Day 7 after QD oral administration of Compound I·2 (HCl) at 125, 250, and 500 mg QD, and on Day 14 after QD oral administration of Compound I·2 (HCl) at 350 mg QD, are shown in FIG. 3.
Table 1 provides a summary of plasma pharmacokinetic parameters [the maximum (peak) plasma drug concentration (Cmax), time (observed time point) to reach maximum (peak) plasma drug concentration following drug administration (Tmax), the observed trough plasma concentration at the end of the dosing interval (Ctau), and the area under the plasma concentration-time curve over the dosing interval (AUCtau)] following 7 or 14 days of multiple oral doses of Compound I·2 (HCl).

[2] = system: hereditary angioedema (HAE); conditions: HAE patients; cited from earlier work
arthritis = conditions: rat models of arthritis; cited from earlier work
[3] = system: lipopolysaccharide (LPS)- or bacterial-induced sepsis; conditions: LPS- or bacterial-induced sepsis in animals; cited from earlier work
sepsis = conditions: cited from earlier work
[4] = system: middle cerebral artery occlusion (MCAO); conditions: mouse MCAO model; cited from earlier work
[5] = across the full 4-fold dose range (125 mg to 500 mg QD)
[6] = 125 mg, 125 mg QD oral, Day 7 (N = 10)
[7] = 350 mg, 350 mg QD oral, Day 14 (N = 9)
[8] = 350 mg, third dose column, 350 mg QD, Day 7 (N = 9), oral
[9] = 500 mg, second dose column, 500 mg QD, Day 7 (N = 9), oral

In the case of N#Cc1cccc([C@@H](NCC2CC2)c2ccc(F)c(NC(=O)c3cc(C(F)(F)F)nn3-c3cccc(CN)c3)c2)c1 [Compound I•2(HCl)], the “Ctau (trough plasma concentration at end of dosing interval)” value ([1]; 125 mg QD oral, Day 7 (N = 10)) is reported as 46.1 ng/mL, the “Increase in geometric mean AUCtau” value [1, 5] is reported as 5.1 fold and the “Increase in geometric mean Cmax” value [1, 5] is reported as 5.3 fold. For the same molecule, the Cmax [1, 6] was 97.8 ng/mL, the AUC [1, 6] was 1600 ng·h/mL and the Tmax [1, 6] was 5 h. It also gave a Cmax [1, 7] of 363 ng/mL, an AUC [1, 7] of 5720 ng·h/mL and a Cmax [1, 8] of 517 ng/mL. For the same molecule, the AUC [1, 8] was 8230 ng·h/mL, the Cmax [1, 9] was 217 ng/mL and the AUC [1, 9] was 3710 ng·h/mL. For the same molecule, the Tmax [1, 9] was 6 h, the “Dose proportionality of exposure” value ([1]; increase from 125 mg to 250 mg QD and 250 mg to 500 mg QD) was “reasonable dose proportionality” and the “Ctau (trough plasma concentration at end of dosing interval)” value ([1]; second dose column, 500 mg QD, Day 7 (N = 9), oral) was 101 ng/mL.

For NC(N)=NCCC[C@@H](N)C(=O)N[C@@H](CCCN=C(N)N)C(=O)N1CCC[C@H]1C(=O)N1C[C@H](O)C[C@H]1C(=O)NCC(=O)N[C@@H](Cc1cccs1)C(=O)N[C@@H](CO)C(=O)N1Cc2ccccc2C[C@@H]1C(=O)N1[C@H](C(=O)N[C@@H](CCCN=C(N)N)C(=O)O)C[C@@H]2CCCC[C@@H]21 [Icatibant], the “Efficacy in treating HAE” value [2] is given as “effective in treating HAE”.

For Cl.NCC1CCC(C(=O)N[C@@H](Cc2ccccc2)C(=O)Nc2ccc(CC(=O)O)cc2)CC1 (stereo partly drawn) [PKSI-527], the Joint swelling (arthritis) is listed as “reduce joint swelling”.

For “H-D-Pro-Phe-Arg-chloromethylketone [H-D-Pro-Phe-Arg-chloromethylketone (CMK), reference compound]”, the “Vascular permeability in multiple organs and lesions” value [3] is listed as “reduce vascular permeability in multiple organs and reduce lesions”.

B1: C1-inhibitor: physiological inhibitor of kallikrein in human plasma (protein, UniProt P05155 23-500, looked up)
Plasma protease C1 inhibitor: NPNATSSSSQDPESLQDRGEGKVATTVISKMLFVEPILEVSSLPTTNSTTNSATKITANTTDEPTTQPTTEPTTQPTIQPTQPTTQLPTDSPTQPTTGSFCPGPVTLCSDLESHSTEAVLGDALVDFSLKLYHAFSAMKKVETNMAFSPFSIASLLTQVLLGAGENTKTNLESILSYPKDFTCVHQALKGFTTKGVTSVSQIFHSPDLAIRDTFVNASRTLYSSSPRVLSNNSDANLELINTWVAKNTNNKISRLLDSLPSDTRLVLLNAIYLSAKWKTTFDPKKTRMEPFHFKNSVIKVPMMNSKKYPVAHFIDQTLKAKVGQLQLSHNLSLVILVPQNLKHRLEDMEQALSPSVFKAIMEKLEMSKFQPTLLTLPRIKVTTSQDMLSIMEKLEFFDFSYDLNLCGLTEDPDLQVSAMQHQTVLELTETGVEAAAASAISVARTLLVFEVQQPFLFVLWDQQHKFPVFMGRVYDPRA
In the case of B1, the “Vascular permeability in multiple organs and lesions” value [3] is listed as “reduce vascular permeability in multiple organs and reduce lesions”, the “Clinical outcome in sepsis patients” value (sepsis) is listed as “Clinical improvement” and the Infarct size [4] is listed as “reduced infarct size”.
